Patent publication US20030166542A1, “Systemic immune response induced by mucosal administration of lipid-tailed polypeptides without adjuvant” (INSTITUT PASTEUR, priority 1999, published 2003)
*: point of attachment. Palmitoyl = CCCCCCCCCCCCCCCC(=O)*

Key:
[1] = test system: T lymphocytes from ganglia sub-mandibulaires; assay type: cell-based, BALB/c mice
C3H/HeJ mice = assay: Isotype analysis of polypeptide-specific serum antibodies (ELISA); assay type: in vivo
[2] = test system: P. falciparum sporozoites, liver schizonts, infected RBC; assay: Immunofluorescent Ab assay (IFAT) of sera from immunized mice against native parasite; assay type: in vivo
Experimental: FIG. 2: Mucosal immunization elicits parasite-specific antibody responses. Sera were obtained from C3H/HeJ mice at 2weeks post-immunization by either nasal or sub-lingual route and assayed fro recognition of (a) P. falciparum sporozoites and (B) hepatic schizonts in an IFI assay as described in Material and Methods. The data are representative of three independent experiments.
The reactivity of the sera against native proteins from various stages of the parasite were analyzed by IFAT using either (i) P. faciparum NF54 strain sporozoites (a gift of W. Eling), or (ii) sections from liver biopsies containing day 5 P. falciparum liver schizonts, or (iii) day 6 ½ P. falciparum liver schizonts obtained from a Chimpanzee. IFAT-labeled anti-human IgG, -A, -M (Diagnostic Pasteur France) or anti-mouse (Cappel. Wester Chester. Pa.) diluted {fraction (1/ 200)} were employed as second Abs.

[3] = test system: spleen and inguinal lymph node cells; assay: Lymphocyte proliferative assay ((3H)TdR) on spleen and inguinal lymph node cells of immunized mice; assay type: cell-based
Experimental: FIG. 3: Systemic cellular immune responses are electited by presentation of lipid-tailed polypeptides to the nasal and sub-lingual mucosal surfaces. Groups of five C3H/HeJ mice were administrated with LSA3-NRII lipid-tailed (black bars) or non-lipdated polypeptide (hatched bars) either a) intranasally, b) sub-lingually, or c) subcutaneously. Two weeks after two administrations, cell suspensions from individual spleens were assayed for in vitro proliferation to the recall polypeptide. Results are expressed as Δ cpm. The background cpm, in unstimulated cells were 1548 fro intranasal, 2356 for sub-lingual and 1965 for subcutaneous routs, Bars represent the mean Δ cpm±SD in each group. The data were similar and are representative of three separate experiments.

Substance: Concanavaline A [CON A, reference compound]
- immune response (CFSE shift of fluorescence) ([1]; positive control): maximum immune response

Substance: Nh2-K(NεPam)GRQYIKANSKFIGITERGRILKEPVHGV-COOH [H-K(PAM)TT-pol 476-484]
- shift of fluorescence (CFSE) [1]: as intense as that provided by positive CON A control

Substance: Ac-LEESQVNDDIFNSLVKSVQQEQQHNVK(Pam)NH2 (Ac-LEESQVNDDIFNSLVKSVQQEQQHNVK(Palmitoyl)-NH2; SMILES CCCCCCCCCCCCCCCC(=O)NCCCC[C@H](NC(=O)[C@@H](NC(=O)[C@H](CC(N)=O)NC(=O)[C@H](Cc1c[nH]cn1)NC(=O)[C@H](CCC(N)=O)NC(=O)[C@H](CCC(N)=O)NC(=O)[C@H](CCC(=O)O)NC(=O)[C@H](CCC(N)=O)NC(=O)[C@H](CCC(N)=O)NC(=O)[C@@H](NC(=O)[C@H](CO)NC(=O)[C@H](CCCCN)NC(=O)[C@@H](NC(=O)[C@H](CC(C)C)NC(=O)[C@H](CO)NC(=O)[C@H](CC(N)=O)NC(=O)[C@H](Cc1ccccc1)NC(=O)[C@@H](NC(=O)[C@H](CC(=O)O)NC(=O)[C@H](CC(=O)O)NC(=O)[C@H](CC(N)=O)NC(=O)[C@@H](NC(=O)[C@H](CCC(N)=O)NC(=O)[C@H](CO)NC(=O)[C@H](CCC(=O)O)NC(=O)[C@H](CCC(=O)O)NC(=O)[C@H](CC(C)C)NC(C)=O)C(C)C)[C@@H](C)CC)C(C)C)C(C)C)C(C)C)C(N)=O) [LSA3-NRII lipid-tailed polypeptide, palmitoyl lipid-tailed polypeptide derived from P. falciparum LSA-3]
- isotype profile of serum antibody response (C3H/HeJ mice; mucosal administration (I.N., S.L.)): preferential IgG2a serum antibody response
- isotype profile of serum antibody response (C3H/HeJ mice; subcutaneous route): dominant IgG1 isotype response
- reactivity of induced Abs with infected RBC's by IFAT ([2]; different steps of intra-erythrocytic maturation): did not react
- reactivity of induced Abs with intact parasite by IFAT ([2]; sporozoite and liver stages, sera of mucosally immunized BALB/c and C3H/HeJ): react with the intact parasite
- proliferative responses against irrelevant polypeptide (LSA1-J) ([3]; Ag specificity): lack of responses
- maximal delta cpm, inguinal lymph nodes ([3]; S.L.): 16189 cpm
- proliferative responses in spleen cells to recall polypeptide ([3]; S.L. or I.N. application, no mucosal adjuvant, C3H/HeJ): strong proliferative responses
- phenotype of lymphoproliferative responses (antibody blocking) ([3]; after mucosal administration, anti-CD4 / anti-CD8 antibodies): abrogated by antibodies against CD4 but not by anti- CD8 antibodies
- proliferative responses, mucosally versus subcutaneously immunized animals ([3]; same dose, P<0.05): at higher levels compared to subcutaneously immunized animals
